Key:
Assay type in all cases: cell-based
MLE-12 cells [1] = test: Inhibitory effect on cytosolic ROS (CM-H2DCFDA) under RSL3; conditions: 1 μM RSL3, 2 hours, compound 0.01, 0.1, 1 μM, FIG. 3
Experimental: To confirm the protective effect against cyto-ROS in lung epithelial cells, MLE-12 cells were seeded at 2×10^5 cells/well in a 12-well plate, and cultured for 18 to 24 hours. Example Compound 29 and Fer-1 were diluted to have the final concentration of 0.01, 0.1, and 1 μM and added to each well, and the cells were cultured for 10 minutes. Afterward, RSL3 was treated to have the final concentration of 1 M, and the cells were cultured for 2 hours. To confirm the inhibitory effect on cyto-ROS, the general oxidative stress indicator CM-H2DCFDA (Invitrogen™; C6827) was used. According to the manufacturer's protocol, CM-H2DCFDA was diluted in the culture broth to have the final concentration of 5 μM, and fluorescence staining was performed after a 30-minute reaction. The MLE-12 cells that were fluorescence-stained with CM-H2DCFDA were detached from the 12-well plate using 0.25% trypsin-EDTA and transferred to a microtube. Fluorescence (Ex/Em=492˜495 nm/517-527 nm) was measured using BD FACSLyric™, and the relative change compared to the control (RSL3-untreated group) was calculated.

[2] = test system: lung epithelial cells (MLE-12); test: Protective effect against cell death due to RSL3 (LDH release), MLE-12; conditions: 24 hours
Experimental: (§1) To confirm cell death protection effects on cardiac cells, adrenal medullary cells, renal fibroblasts, retinal epithelial cells, lung epithelial cells, renal proximal tubular epithelial cells, hippocampal neurons and fibroblasts, each type of cells were seeded at 4×10^3 to 1.2×10^4 cells/well in a 96-well plate and cultured for 18 to 24 hours. The example compounds were diluted to have the final concentration of 0.001, 0.003, 0.01, 0.3, 1, 3, and 10 μM, respectively, and then added to different wells and cultured for 15 to 20 minutes. […] To confirm the cell death protection effect of the example compounds, the degree of extracellular secretion of lactate dehydrogenase (LDH) was measured using a cytotoxicity LDH assay kit [Dojindo; CK12]. Briefly, at the end of 24-hour treatment of each type of cells with RSL3, 70 μL of the supernatant was taken from the 96-well plate where the cells were cultured and transferred to a new 96-well plate. The assay buffer included in the kit was added at 70 μL/well (equal to that of the sample) and the plate was covered with foil to block light and allowed to react for 15 to 20 minutes at room temperature. While observing a color change of the sample, 35 µL/well of a stop solution was added, an absorbance at 490 nm was measured using an iD3 spectrophotometer, and an EC50 value was calculated.

MLE-12 cells [3] = test: Inhibitory effect on mitochondrial lipid ROS (MitoPerOx) under RSL3; conditions: 1 μM RSL3, 2 hours, compound 0.01, 0.1, 1 μM, FIG. 2
Experimental: To confirm the protective effect against mito-lipid ROS in lung epithelial cells, MLE-12 cells were seeded at 2×10^5 cells/well in a 12-well plate and cultured for 18 to 24 hours. Example Compound 29 and Fer-1 were diluted to have the final concentration of 0.01, 0.1, and 1 μM and added to each well, and the cells were cultured for 10 minutes. Afterward, RSL3 was treated to have the final concentration of 1 M, and the cells were cultured for 2 hours. To confirm the inhibitory effect on mito-lipid ROS, the fluorescent mitochondria-targeted lipid peroxidation probe MitoPerOx (abcam; ab146820) was used. According to the manufacturer's protocol, MitoPerOx was diluted in the culture broth to have the final concentration of 1 μM and treated, and fluorescence staining was performed after a 30-minute reaction. The MLE-12 cells that were fluorescence-stained with MitoPerOx were detached from the 12-well plate using 0.25% trypsin-EDTA and transferred to a microtube. Fluorescence (Ex/Em=495 nm/520-590 nm) was measured using BD FACSLyric™, and the relative change compared to the control was calculated.

[4] = test system: renal fibroblasts (NRK-49F); test: Protective effect against cell death due to RSL3 (LDH release), NRK-49F; conditions: RSL3 3 μM, 24 hours
Experimental: as §1

[5] = test system: retinal epithelial cells (ARPE-19); test: Protective effect against cell death due to RSL3 (LDH release), ARPE-19; conditions: RSL3 0.3 μM, 24 hours
Experimental: as §1

[6] = test system: renal proximal tubular epithelial cells (HK2); test: Protective effect against cell death due to RSL3 (LDH release), HK2; conditions: RSL3 0.3 μM, 24 hours
Experimental: as §1

fibroblasts (NIH/3T3) = test: Protective effect against cell death due to RSL3 (LDH release), NIH/3T3; conditions: 24 hours
Experimental: as §1

[7] = test system: adrenal medullary cells (PC-12); test: Protective effect against cell death due to RSL3 (LDH release), PC-12; conditions: RSL3 0.3 μM, 24 hours
Experimental: as §1

cardiac cells (H9C2) = test: Protective effect against t-BHP-induced cell death in cardiac cells (LDH release); conditions: Rattus norvegicus, t-BHP 400 PM, 2 hours, read-out: EC50, protective effect against cell death due to t-BHP induction
How it was run: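 H9C2 cells were pretreated 15–20 min with compound at final 0.001–30 PM (so in the source), then exposed to t-BHP at final 400 PM for 2 h. LDH released into supernatant was measured colorimetrically at 490 nm after 15 min room-temperature reaction, and EC50 derived.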

Row | Compound | cyto-ROS increased by RSL3 treatment (MLE-12 cells [1]) | EC50 ([2]; RSL3 1 μM) | mito-lipid ROS increased by RSL3 treatment (MLE-12 cells [3]) | EC50 [4] | EC50 [5] | EC50 [6] | EC50 (fibroblasts (NIH/3T3); RSL3 3 μM) | EC50 [7] | EC50 (cardiac cells (H9C2)) | EC50 ([2]; MLE12, RSL3 1 μM) | EC50 ([4]; Rattus norvegicus) | EC50 ([5]; Homo sapiens) | EC50 ([6]; Epithelial cell) | EC50 (fibroblasts (NIH/3T3); Mus musculus, NIH3T3, RSL3 3 μM) | EC50 ([7]; Rattus norvegicus)
1 | CCOC(=O)c1ccc(NC2CCCCC2)c(N)c1 [Fer-1, ferrostatin-1, reference compound] | significantly reduced lipid ROS levels at 0.01, 0.1 and 1 μM | 100 to 1000 nM | significantly decreased at 1 μM | ≤ 100 nM | ≤ 100 nM | ≤ 100 nM | 100 to 1000 nM | ≤ 100 nM |  |  |  |  |  |  | 
2 | OCCOCCOCc1cc(NC2CCOCC2)c2[nH]c(-c3ccccc3)cc2c1 [Example 29, 2-(2-((2-phenyl-7-((tetrahydro-2H-pyran-4-yl)amino)-1H-indol-5-yl)methoxy)ethoxy)ethan-1-ol] | significantly reduced lipid ROS levels at 0.1 and 1 μM |  | significantly decreased at 1 μM |  |  |  |  |  | ≤ 300 nM | ≤ 100 nM | ≤ 100 nM | ≤ 100 nM | ≤ 100 nM | 100 to 1000 nM | 100 to 1000 nM
